# Laboratory results taken from patent publication US20230233425A1, “USE OF VOLATILE COMPOSITIONS TO LIMIT OR ELIMINATE THE PERCEPTION OF MALODOR” (Firmenich SA, priority 2017, published 2023).
# Several values for one entry are separate records, joined by “and”; a condition that tells them apart may be missing. Equal entries are not always repeated. Where two headings read alike, the source gives them in different places. Marks after values point to notes of the source that are not given here.
# Assays:
# [1] = tested on: geonol earthy/moss odor perception; test: Human sensory performance of test compounds with and without geonol; type: in vivo; details: for % Earthy/Moss Odor: Test Compound Only
# Summary of the method: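 Panelists first learned the earthy/moss quality from a geonol-only reference, then rated pleasantness, earthy/moss intensity and overall intensity of geonol alone, antagonist alone, and geonol mixed with isointense or low-intensity antagonist on a 0-10 linear scale. Samples were presented in glass jars in randomized order with two-minute intervals.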
# Olfr749 = biological target: T1, Olfr749 (Mus musculus, UniProt E9Q438); test: Indole antagonist dose-response, cAMP HTRF in HEK293T, vs indole EC80; type: cell-based; details: Table 23
# T1 construct: Flag; Rho tag; expressed in transfected cells
# T1 sequence (E9Q438 1-313): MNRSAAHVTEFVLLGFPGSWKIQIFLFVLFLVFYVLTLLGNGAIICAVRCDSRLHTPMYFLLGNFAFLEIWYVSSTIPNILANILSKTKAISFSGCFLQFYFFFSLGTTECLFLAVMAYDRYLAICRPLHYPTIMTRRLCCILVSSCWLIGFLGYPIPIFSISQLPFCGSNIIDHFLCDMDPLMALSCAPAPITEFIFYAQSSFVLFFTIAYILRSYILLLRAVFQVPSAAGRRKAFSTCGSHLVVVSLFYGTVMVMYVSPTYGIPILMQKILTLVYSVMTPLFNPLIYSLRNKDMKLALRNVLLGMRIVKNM
# Description: (§1) Functional dose-response experiments were performed to identify compounds capable of antagonizing indole-sensitive receptors previously identified (U.S. Pat. No. 9,914,760 B2). Using a cell-based assay, mouse receptor Olfr738, Olfr739, Olfr740, Olfr741, 0fr742, Olfr743, Olfr744, Olfr746, Olfr748 and Olfr749 were tested in an HEK293T cell line wherein the endogenous RTP1 gene has been activated and the odorant receptor chaperone was expressed (described in WO2016201153A1). The receptor genes were tagged with a Flag-Rho tag combination. Receptor genes were co-transfected with the canonical olfactory human G-protein alpha subunit Golf gene. Co-expression of the human Golf activates the Gs transduction pathway that leads to an internal cAMP increase upon binding to the appropriate ligand (indole here). Odorant-induced activity was detected by measuring the cAMP increase in the cytosol using an HTRF based kit (CisBio, cAMP dynamic 2 kit, cat. 62AM4PEJ). The receptors were exposed to binary mixtures of increasing concentrations of the test compounds in the presence of a potent activation concentration of indole (EC80) for each receptor. […] All the compounds listed decreased the indole induced activity of at least one receptor.
# Olfr746 = biological target: T2, Olfr746 (Mus musculus, UniProt E9Q840); test: as above; type: cell-based; details: Table 23
# T2 construct: Flag; Rho tag; expressed in transfected cells
# T2 sequence (E9Q840 1-314): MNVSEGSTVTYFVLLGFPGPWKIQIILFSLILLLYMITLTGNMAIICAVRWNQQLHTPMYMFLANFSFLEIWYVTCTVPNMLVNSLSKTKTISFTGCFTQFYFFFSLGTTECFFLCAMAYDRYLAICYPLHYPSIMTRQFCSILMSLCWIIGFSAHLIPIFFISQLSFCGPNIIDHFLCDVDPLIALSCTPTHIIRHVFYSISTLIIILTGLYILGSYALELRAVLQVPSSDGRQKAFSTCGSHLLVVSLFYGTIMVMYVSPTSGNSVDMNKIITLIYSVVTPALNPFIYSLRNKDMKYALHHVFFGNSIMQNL
# Description: as §1
# Olfr743 = Olfr743 (Mus musculus, UniProt L7N1Y2); test: as above; type: cell-based; details: Table 23
# Description: as §1
# [2] = tested on: geonol malodor (earthy/moss odor) perception; test: Sensory evaluation of geonol earthy/moss odor in iso-intense binary mixtures (glass jars); type: in vivo, human; details: iso-intense binary mixture
# Description: Sensory Evaluation: Five 16 oz glass jars containing either REF (geonol only), geonol only control, antagonist only, mixture of geonol and isointense antagonist, or mixture of geonol and low intensity antagonist were presented to the panelists (last four samples were randomized across panelists). The panelists were asked to familiarize themselves with the earthy/moss odor quality from the REF jar first, then rate the pleasantness, earthy/moss odor intensity and overall odor intensity of the next four samples on a 0-10 linear scale. The inter-stimulus interval between the samples was two minutes to avoid adaptation.
# Olfr740 = Olfr740 (Mus musculus, UniProt E9PV79); test: Indole antagonist dose-response, cAMP HTRF in HEK293T, vs indole EC80; type: cell-based; details: vs indole EC80; for IC50: read-out: Olfr740 IC50; for Emax: HEK-293T, read-out: Olfr740 % Inhibition
# Description: (§2) Using a cell-based assay, mouse receptor Olfr738, Olfr739, Olfr740, Olfr741, 0fr742, Olfr743, Olfr744, Olfr746, Olfr748 and Olfr749 were tested in an HEK293T cell line wherein the endogenous RTP1 gene has been activated and the odorant receptor chaperone was expressed (described in WO2016201153A1). The receptor genes were tagged with a Flag-Rho tag combination. Receptor genes were co-transfected with the canonical olfactory human G-protein alpha subunit Golf gene. Co-expression of the human Golf activates the Gs transduction pathway that leads to an internal cAMP increase upon binding to the appropriate ligand (indole here). Odorant-induced activity was detected by measuring the cAMP increase in the cytosol using an HTRF based kit (CisBio, cAMP dynamic 2 kit, cat. 62AM4PEJ).
# Olfr748 = Olfr748 (Mus musculus, UniProt E9Q9Z0); test: as above; type: cell-based; details: Table 23
# Description: as §2
# Olfr738 = Olfr738 (Mus musculus, UniProt L7N1X7); test: as above; type: cell-based; details: vs indole EC80; for IC50: read-out: Olfr738 IC50
# Description: as §2
# Olfr741 = Olfr741 (Mus musculus, UniProt L7N1Y5); test: as above; type: cell-based
# Description: as §2
# Olfr742 = Olfr742 (Mus musculus, UniProt A2RTP5); test: as above; type: cell-based; details: vs indole EC80; for IC50: read-out: Olfr742 IC50; for Emax: HEK-293T, read-out: Olfr742 % Inhibition
# Description: as §2
# [3] = tested on: OR11A1, or the OR2M3 olfactory receptor; test: Geonol olfactory receptor antagonist cell-based screening, inhibitory dose-response vs geonol EC80; parameters: species or system human; details: geonol at EC80; for IC50: read-out: IC50
# [4] = tested on: geonol receptors Olfr339, Olfr1487, Olfr1A1, OR11A1, Olfr96; test: Antagonists of geonol receptors (Example 11); type: cell-based, mouse and human; parameters: Inhibition(%): concentration or dose not given beside the values; details: Table 18
# [5] = tested on: 1-octen-3-ol receptors OR2W1, Olfr93, Olfr120, Olfr398; test: Antagonists of 1-octen-3-ol receptors (Example 11); type: cell-based, mouse and human; parameters: Inhibition(%): concentration or dose not given beside the values; details: Table 19
# Olfr744 = biological target: T3, Olfr744 (Mus musculus, UniProt Q7TRM0); test: Indole antagonist dose-response, cAMP HTRF in HEK293T, vs indole EC80; type: cell-based; details: Table 23
# T3 construct: Flag; Rho tag; expressed in transfected cells
# T3 sequence (Q7TRM0 1-323): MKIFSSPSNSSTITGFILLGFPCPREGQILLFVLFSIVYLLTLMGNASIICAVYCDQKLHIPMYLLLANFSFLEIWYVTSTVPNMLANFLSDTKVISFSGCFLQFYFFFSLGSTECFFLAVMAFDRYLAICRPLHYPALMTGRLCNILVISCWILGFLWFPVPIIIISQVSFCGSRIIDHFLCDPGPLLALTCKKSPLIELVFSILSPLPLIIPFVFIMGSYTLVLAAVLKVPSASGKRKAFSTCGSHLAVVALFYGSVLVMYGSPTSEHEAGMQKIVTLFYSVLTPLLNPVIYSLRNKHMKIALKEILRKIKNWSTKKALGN
# Description: as §1
# Olfr739 = Olfr739 (Mus musculus, UniProt E9Q1P0); test: as above; type: cell-based
# Description: as §1
# [6] = Low Dilution Test Compound + Geonol (0.1%)
# [7] = Medium Dilution Test Compound + Geonol (0.1%)
# [8] = Table 22, second listing of the same compounds
# [9] = Table 22, first listing (r7-r45)
# Sequence of Olfr748 (E9Q9Z0 entry or part of it): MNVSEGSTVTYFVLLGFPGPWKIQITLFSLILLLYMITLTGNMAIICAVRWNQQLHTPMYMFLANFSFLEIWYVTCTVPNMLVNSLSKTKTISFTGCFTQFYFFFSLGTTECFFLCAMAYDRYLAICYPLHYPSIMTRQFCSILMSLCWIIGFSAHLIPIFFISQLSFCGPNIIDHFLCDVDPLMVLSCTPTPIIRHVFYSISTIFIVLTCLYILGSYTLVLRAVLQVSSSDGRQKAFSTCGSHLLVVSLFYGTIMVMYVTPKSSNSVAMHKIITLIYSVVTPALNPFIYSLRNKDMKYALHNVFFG
# Sequence of Olfr742 (A2RTP5 entry or part of it): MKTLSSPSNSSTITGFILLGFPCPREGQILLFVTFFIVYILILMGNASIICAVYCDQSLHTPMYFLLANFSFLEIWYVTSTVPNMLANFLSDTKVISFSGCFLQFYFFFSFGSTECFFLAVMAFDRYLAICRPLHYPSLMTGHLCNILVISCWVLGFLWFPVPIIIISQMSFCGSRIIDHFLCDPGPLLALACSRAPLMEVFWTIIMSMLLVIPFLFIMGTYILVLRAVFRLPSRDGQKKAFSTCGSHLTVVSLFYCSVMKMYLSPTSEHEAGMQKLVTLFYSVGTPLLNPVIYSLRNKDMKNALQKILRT
# Sequence of Olfr740 (E9PV79 entry or part of it): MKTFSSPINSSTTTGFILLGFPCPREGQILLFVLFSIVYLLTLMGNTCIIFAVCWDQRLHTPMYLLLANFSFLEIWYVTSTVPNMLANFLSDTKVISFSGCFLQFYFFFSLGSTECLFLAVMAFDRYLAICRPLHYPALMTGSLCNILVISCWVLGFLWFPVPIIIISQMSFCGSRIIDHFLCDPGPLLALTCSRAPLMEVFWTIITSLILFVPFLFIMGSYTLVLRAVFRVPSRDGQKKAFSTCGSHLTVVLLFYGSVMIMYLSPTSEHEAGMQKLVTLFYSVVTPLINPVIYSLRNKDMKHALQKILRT
# Sequence of Olfr739 (E9Q1P0 entry or part of it): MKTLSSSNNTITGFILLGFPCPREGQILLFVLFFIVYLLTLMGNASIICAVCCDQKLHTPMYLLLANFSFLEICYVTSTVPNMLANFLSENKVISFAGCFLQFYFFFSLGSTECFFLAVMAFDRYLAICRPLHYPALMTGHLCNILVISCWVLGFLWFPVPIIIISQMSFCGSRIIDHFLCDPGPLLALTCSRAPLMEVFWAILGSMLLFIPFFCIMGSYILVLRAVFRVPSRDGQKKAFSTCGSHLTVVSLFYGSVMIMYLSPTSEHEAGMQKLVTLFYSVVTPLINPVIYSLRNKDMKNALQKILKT
# Sequence of Olfr741 (L7N1Y5 entry or part of it): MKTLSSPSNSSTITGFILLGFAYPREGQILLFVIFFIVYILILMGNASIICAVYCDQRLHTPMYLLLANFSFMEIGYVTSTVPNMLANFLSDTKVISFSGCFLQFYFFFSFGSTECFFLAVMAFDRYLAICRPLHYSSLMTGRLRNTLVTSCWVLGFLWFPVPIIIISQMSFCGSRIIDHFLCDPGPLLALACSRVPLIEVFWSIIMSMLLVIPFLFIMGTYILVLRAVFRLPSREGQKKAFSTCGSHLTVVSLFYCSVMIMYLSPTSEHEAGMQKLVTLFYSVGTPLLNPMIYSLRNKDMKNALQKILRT
# Sequence of Olfr743 (L7N1Y2 entry or part of it): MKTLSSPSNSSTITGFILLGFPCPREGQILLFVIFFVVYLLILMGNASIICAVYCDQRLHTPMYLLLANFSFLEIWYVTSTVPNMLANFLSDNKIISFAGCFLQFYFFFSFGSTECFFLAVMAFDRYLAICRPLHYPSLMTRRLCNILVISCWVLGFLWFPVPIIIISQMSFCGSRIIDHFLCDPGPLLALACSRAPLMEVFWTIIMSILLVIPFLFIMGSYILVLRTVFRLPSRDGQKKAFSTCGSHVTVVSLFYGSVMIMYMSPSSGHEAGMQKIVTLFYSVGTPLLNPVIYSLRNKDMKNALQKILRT
# Sequence of Olfr738 (L7N1X7 entry or part of it): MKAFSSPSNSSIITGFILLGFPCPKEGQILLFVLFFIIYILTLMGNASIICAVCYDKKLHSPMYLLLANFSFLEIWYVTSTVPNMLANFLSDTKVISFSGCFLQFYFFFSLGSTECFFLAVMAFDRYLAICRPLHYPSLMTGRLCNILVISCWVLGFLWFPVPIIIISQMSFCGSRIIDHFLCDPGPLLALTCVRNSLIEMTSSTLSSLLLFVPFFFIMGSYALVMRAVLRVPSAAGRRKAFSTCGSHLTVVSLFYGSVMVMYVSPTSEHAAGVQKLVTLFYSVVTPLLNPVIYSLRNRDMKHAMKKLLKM
Molecule,"% Earthy/Moss Odor Remaining [1, 6]","% Earthy/Moss Odor Remaining [1, 7]",% Earthy/Moss Odor [1],IC50 (Olfr749),Olfr749 % Inhibition (Olfr749),IC50 (Olfr746),Olfr746 % Inhibition (Olfr746),IC50 (Olfr743),Olfr743 % Inhibition (Olfr743),"Olfr740 % Inhibition (Olfr740; Table 22, first listing)","IC50 (Olfr740; Table 22, first listing)",Olfr740 % Inhibition (Olfr740; [8]),IC50 (Olfr748),Olfr748 % Inhibition (Olfr748),"Olfr738 % Inhibition (Olfr738; Table 22, first listing)","IC50 (Olfr738; Table 22, first listing)",Olfr738 % Inhibition (Olfr738; [8]),"IC50 (Olfr741; Table 22, first listing)",IC50 (Olfr741; [8]),Olfr741 % Inhibition (Olfr741; [8]),further results
"1-(3,3-dimethylcyclohexen-1-yl)pent-4-en-1-one; 1-(5,5-dimethylcyclohexen-1-yl)pent-4-en-1-one",85.80%,72.30%,34.50%,46.2 µM,90.61%,89.4 µM,94.28%,210 µM,59.11%,179.31%,1.68 µM,94.28%,81.6 µM,66.47%,33.49%,6.29 µM,59.11%,131 µM,81.6 µM,66.47%,"% Remaining in human sensory tests [2]: 58* %; Olfr741 % Inhibition (Olfr741; Table 22, first listing): 124.57%; Olfr742 % Inhibition (Olfr742; Table 22, first listing): 146.91%; IC50 (Olfr742; Table 22, first listing): 4.3 µM; Olfr742 % Inhibition (Olfr742; [8]): 90.61%; IC50 [3]: 111 µM and 148 µM"
3-(4-hydroxy-4-methylpentyl)cyclohex-3-ene-1-carbaldehyde; 4-(4-hydroxy-4-methylpentyl)cyclohex-3-ene-1-carbaldehyde,85.70%,78.70%,15.40%,233 µM,62.05%,373 µM,43.95%,–,–,72.15%,185 µM,43.95%,213 µM,48.14%,14.67%,166 µM,–,–,213 µM,48.14%,"Olfr742 % Inhibition (Olfr742; Table 22, first listing): 41.42%; IC50 (Olfr742; Table 22, first listing): 182 µM; Olfr742 % Inhibition (Olfr742; [8]): 62.05%; % Inhibition [3]: 60%; IC50 [3]: 217 µM"
"C=CCCC(=O)C1=CCCC(C)(C)C1 [1-(5,5-dimethylcyclohexen-1-yl)pent-4-en-1-one]",–,–,–,–,–,224 µM,58.87%,–,–,–,–,–,–,–,–,–,–,–,–,–,"IC50 [4]: 220 µM; Inhibition(%) [4]: 40%; Emax (Olfr740; Table 22, first listing): 91.2%; Emax (Olfr740; [8]): 58.9%; IC50 (Olfr740; [9]): 63.6 µM"
"c1nc2c(o1)CCCCCCCCCC2 [4,5,6,7,8,9,10,11,12,13-decahydrocyclododeca[d][1,3]oxazole]",–,–,–,70 µM,57.85%,–,–,58.9 µM,31.68%,–,–,–,216 µM,12.61%,93.54%,–,31.68%,33.7 µM,216 µM,12.61%,"IC50 [5]: 38 µM; Inhibition(%) [5]: 77%; IC50 (Olfr744): 117 µM; Olfr744 % Inhibition (Olfr744): 38.37%; Olfr739 % Inhibition (Olfr739; Table 22, first listing): 61.91%; IC50 (Olfr739; [9]): 24.1 µM; Olfr739 % Inhibition (Olfr739; [8]): 38.37%; Emax (Olfr740; Table 22, first listing): 102%; IC50 (Olfr740; [9]): 5.52 µM; IC50 (Olfr738; [9]): 9.26 µM; Olfr741 % Inhibition (Olfr741; Table 22, first listing): 62.10%; Emax (Olfr742; Table 22, first listing): 59.7%; Emax (Olfr742; [8]): 57.9%; IC50 (Olfr742; [9]): 26.8 µM"
